According to BindingDB's records for patent US20250059218 (The Leland Stanford Junior University, 2025):

target: T1, Ectonucleotide pyrophosphatase/phosphodiesterase family member 1 (Mus musculus, UniProt P06802); assay: ENPP1 Enzyme Activity Assay
T1 sequence (P06802 whole entry): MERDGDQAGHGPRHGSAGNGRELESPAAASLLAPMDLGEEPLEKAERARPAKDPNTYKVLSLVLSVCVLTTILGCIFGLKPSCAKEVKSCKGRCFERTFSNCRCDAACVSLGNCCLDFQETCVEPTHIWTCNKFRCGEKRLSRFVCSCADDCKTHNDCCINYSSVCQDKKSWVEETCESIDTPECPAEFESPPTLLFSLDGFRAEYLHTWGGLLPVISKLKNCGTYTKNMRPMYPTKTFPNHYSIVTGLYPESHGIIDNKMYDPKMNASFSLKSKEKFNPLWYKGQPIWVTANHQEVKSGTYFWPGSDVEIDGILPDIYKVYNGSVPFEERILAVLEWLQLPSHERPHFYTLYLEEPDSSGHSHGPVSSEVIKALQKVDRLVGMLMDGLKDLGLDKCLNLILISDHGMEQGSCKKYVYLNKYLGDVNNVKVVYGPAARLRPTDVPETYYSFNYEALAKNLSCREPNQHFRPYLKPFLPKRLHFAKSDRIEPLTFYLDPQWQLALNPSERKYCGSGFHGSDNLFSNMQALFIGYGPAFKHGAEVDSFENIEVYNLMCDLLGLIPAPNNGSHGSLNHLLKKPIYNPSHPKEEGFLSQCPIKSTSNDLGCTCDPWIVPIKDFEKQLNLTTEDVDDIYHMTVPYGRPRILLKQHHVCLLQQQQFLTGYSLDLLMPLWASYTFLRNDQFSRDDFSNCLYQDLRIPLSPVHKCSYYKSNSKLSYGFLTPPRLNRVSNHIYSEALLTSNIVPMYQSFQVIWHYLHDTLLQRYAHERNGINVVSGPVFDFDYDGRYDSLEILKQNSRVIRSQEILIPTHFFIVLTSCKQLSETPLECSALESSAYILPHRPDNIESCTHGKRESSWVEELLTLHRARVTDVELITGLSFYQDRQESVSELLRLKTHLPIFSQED
Procedure: The AMP degradation product was converted to ATP, which was detected using luciferase. To achieve this, an enzyme mixture of polyphosphate:AMP phosphotransferase (PAP) and myokinase was prepared according to Goueli et al. in EP2771480. Briefly, PAP was diluted to 2 mg/mL in buffer containing 50 mM Tris pH 7.5, 0.1% NP-40. Myokinase was diluted to 2 KU/mL in buffer containing 3.2 mM ammonium sulfate pH 6.0, 1 mM EDTA, and 4 mM polyphosphate. The heat-inactivated ENPP1 reaction was incubated with PAP (0.01 μg/μL) and myokinase (0.0075 U/μL) in buffer containing 40 mM Tris pH 7.5, 0.05 mg/mL Prionex, 5 mM MgCl2, 20 μM polyphosphate, and 0.15 g/L phenol red (for ease of pipetting) for 3 hours (total reaction volume=20 μL). CellTiterGlo (20 uL) was added to the reaction according to manufacturer's protocol and luminescence was measured.

First: COc1cc2ncnc(Nc3ccc(P(=O)(O)O)cc3)c2cc1OC [US20250059218, Compound 2]
Second: COc1cc2ncnc(NCc3ccc(P(=O)(O)O)cc3)c2cc1OC [US20250059218, Compound 4]
The IC50 of the first is higher: greater than 100 nM for the first, less than 50 nM for the second.

COc1cc2nccc(N3CCC(CCP(=O)(O)O)CC3)c2cc1OC [US20250059218, Compound 201] and COc1cc2ncc(Cl)c(N3CCC(CCP(=O)(O)O)CC3)c2cc1OC [US20250059218, Compound 207] cannot be ordered by IC50: greater than 100 nM for the first, greater than 100 nM for the second.

COc1ccc2c(N3CCC(COP(O)(O)=S)CC3)c(C#N)cnc2c1 [US20250059218, Compound 48] and COc1ccc2c(N3CCC(CCOP(O)(O)=S)CC3)c(C#N)cnc2c1 [US20250059218, Compound 215] cannot be ordered by IC50: greater than 100 nM for the first, greater than 100 nM for the second.

Compared with COc1ccc2c(N3CCC(CCB(O)O)CC3)c(C#N)cnc2c1 [US20250059218, Compound 217], COc1ccc2c(N3CCC(CCP(=O)(O)O)CC3)c(C#N)cnc2c1 [US20250059218, Compound 43] is lower in IC50: greater than 100 nM for the first, less than 50 nM for the second.

COc1cccc2c(N3CCC(CCCP(=O)(O)O)CC3)c(C#N)cnc12 [US20250059218, Compound 210] and COc1cccc2c(N3CCC(CCP(=O)(O)O)CC3)c(C#N)cnc12 [US20250059218, Compound 45] cannot be ordered by IC50: less than 50 nM for the first, less than 50 nM for the second.

Going from COc1cccc2c(NCc3ccc(B(O)O)cc3)c(C#N)cnc12 [US20250059218, Compound 214] to COc1cccc2c(NCc3ccc(P(=O)(O)O)cc3)c(C#N)cnc12 [US20250059218, Compound 52], the IC50 falls from greater than 100 nM to less than 50 nM. The second is the more potent here.

Going from COc1cc2ncc3ncn(Cc4ccc(CP(=O)(O)O)cc4)c3c2cc1OC [US20250059218, Compound 218] to COc1cc2ncnc(NCc3ccc(CP(=O)(O)O)cc3)c2cc1OC [US20250059218, Compound 5], the IC50 falls from greater than 100 nM to less than 50 nM.

COc1cc2ncc(C#N)c(NCc3ccc(P(=O)(O)O)cc3)c2cc1OC [US20250059218, Compound 203] and COc1ccc2c(NCc3ccc(P(=O)(O)O)cc3)c(C#N)cnc2c1 [US20250059218, Compound 204] cannot be ordered by IC50: less than 50 nM for the first, less than 50 nM for the second.

Compared with COc1ccc2c(NCc3ccc(B(O)O)cc3)ncnc2c1 [US20250059218, Compound 103], COc1cccc2c(NCc3ccc(B(O)O)cc3)ncnc12 [US20250059218, Compound 102] is lower in IC50: greater than 100 nM for the first, less than 50 nM for the second. The second is the more potent here.

COc1ccc2c(N3CCC(CCCP(=O)(O)O)CC3)c(C#N)cnc2c1 [US20250059218, Compound 209] and COc1cc2ncc(C#N)c(N3CCC(CCP(=O)(O)O)CC3)c2cc1OC [US20250059218, Compound 42] cannot be ordered by IC50: less than 50 nM for the first, less than 50 nM for the second.

First: COc1cc2ncc(F)c(N3CCC(CCP(=O)(O)O)CC3)c2cc1OC [US20250059218, Compound 208]
Second: COc1cc2ncc(N)c(N3CCC(CCP(=O)(O)O)CC3)c2cc1OC [US20250059218, Compound 205]
The IC50 of the first is higher: greater than 100 nM for the first, less than 50 nM for the second.

First: COc1cccc2c(NCc3ccc(C(=O)NO)cc3)ncnc12 [US20250059218, Compound 104]
Second: COc1cccc2c(NCc3ccc(P(=O)(O)O)cc3)ncnc12 [US20250059218, Compound 36]
The IC50 of the first is higher: greater than 100 nM for the first, less than 50 nM for the second. The second is the more potent here.

COc1cccc2c(NCc3ccc(P(=O)(O)O)cc3)nc(/C=C/c3cccnc3)nc12 [US20250059218, Compound 53] and COc1cccc2c(NCc3ccc(CP(=O)(O)O)cc3)c(C#N)cnc12 [US20250059218, Compound 211] cannot be ordered by IC50: less than 50 nM for the first, less than 50 nM for the second.

COc1cc2ncnc(NCc3ccc(C(=O)NO)cc3)c2cc1OC [US20250059218, Compound 101] and COc1cccc2c(NCc3ccc(C(=O)NO)cc3)c(C#N)cnc12 [US20250059218, Compound 220] cannot be ordered by IC50: greater than 100 nM for the first, greater than 100 nM for the second.

COc1ccc2c(NCc3ccc(B(O)O)cc3)c(C#N)cnc2c1 [US20250059218, Compound 213] and COc1ccc2c(NCc3ccc(C(=O)NO)cc3)c(C#N)cnc2c1 [US20250059218, Compound 219] cannot be ordered by IC50: greater than 100 nM for the first, greater than 100 nM for the second.

COc1cccc2c(N3CCC(COP(O)(O)=S)CC3)c(C#N)cnc12 [US20250059218, Compound 50] and COc1cccc2c(N3CCC(CCB(O)O)CC3)c(C#N)cnc12 [US20250059218, Compound 216] cannot be ordered by IC50: greater than 100 nM for the first, greater than 100 nM for the second.

Work on COc1cc(OC)c2ncc(C#N)c(N3CCC(CCP(=O)(O)O)CC3)c2c1 [US20250059218, Compound 46] yielded an IC50 greater than 100 nM.
